Each structure is given as a SMILES string.

The subject of this assay is PC-3 prostate breast cancer cells. Briefly: EDR assay, anti-proliferation against PC-3 cells (3H-thymidine incorporation in soft agar). The conditions noted are these: Homo sapiens, PC3 cell line, five days incubation, 3H-TdR incorporation. It is filed as cell-based. The procedure:
Compounds prepared according to Examples 1-7 were tested for anti-proliferation against PC-3 prostate […] cancer cells. Butyric acid and trichostatin, a potent HDAC inhibitor, were used as reference compounds. Both compounds were purchased from Sigma-Aldrich, Milwaukee, Wis.
The PC3 cell line was maintained in RPMI supplemented with 10% fetal calf serum and antibiotics. The EDR assay was performed as described by Kern and Weisenthal in “Highly Specific Prediction of Antineoplastic Drug Resistance With An In Vitro Assay Using Suprapharmacologic Drug Exposures,” J. Nat. Cancer Inst., 82:582-588 (1990); and Fruehauf and Bosanquet, “In vitro Determination of Drug Response: A Discussion of Clinical Applications,” PPO Updates 7(12):1-16 (1993). Cells were suspended in 0.12% soft agar in complete medium and plated (2,000 cells per well, as determined by preliminary experiments) in different drug concentrations onto a 0.4% agarose underlayer in 24-well plates. Plating cells on agarose underlayers supports the proliferation only of the transformed cells, ensuring that the growth signal stems from the malignant component of the tumor.
All compounds were dissolved in DMSO to 200× stock solutions. Stock solutions were diluted to 20× working solutions using the tissue culture medium, serially diluted and added to the 24-well plates. The concentration range was 0.001 μM to 0.3 μM for trichostatin and 10 μM-1,000 μM for the other compounds. No significant changes in pH of the culture medium were observed under the above conditions. Diluent control wells contained PC3 cells treated with DMSO, at the dilutions used for appropriate drug treatment. All experimental points were represented by two separate wells (duplicates). Positive controls were determined using at least two wells treated with an extremely high dose of cisplatin, an anti-cancer agent. Four wells containing tumor cells that were not treated with drugs served as negative controls in each experiment.
Cells were incubated with drugs under standard culture conditions for five days. Cultures were pulsed with tritiated thymidine (^3H-TdR, New Life Science Products, Boston, Mass.) at 5 μCi per well for the last 48 hours of the culture period. Cell culture plates were then heated to 90° C. to liquefy the agarose, and cells were harvested onto glass fiber filters, which were then placed into counting vials containing liquid scintillation fluid. The radioactivity trapped on the filters was counted with a Beckman scintillation counter. The fraction of surviving cells was determined by comparing ^3H-TdR incorporation in treated (experimental points) and untreated (negative control) wells. All drug concentrations are presented as μM, allowing for normalization of drug response curves and direct comparison of the effects of the drugs. Microsoft Excel was used to organize the raw data on EDR experiments, and the SigmaPlot program was utilized to generate drug response curves. All drug response curves were as approximated as sigmoidal equations (characteristic for typical drug response curves) to fit the data. IC50 values were determined using the approximated sigmoidal curves and expressed as μM.
A general note: Uptake of a labelled nucleoside into DNA is a usual measure of proliferation.
Take `CC(=O)OCOC(=O)C#Cc1ccccc1` [phenylpropioloyloxymethyl acetate]: the midpoint of inhibition, the IC50, lay at 25 µM. Regarding `CC(=O)OCOC(=O)CC=CC=Cc1ccccc1` [6-phenyl-3,5-hexadienoyloxymethyl acetate], half-maximal inhibition (IC50) required 18 µM. On to `CC(=O)OCOC(=O)C=CSc1ccccc1` [3-(phenylthio)acryloyloxymethyl acetate], for which the IC50 (as a rule, the concentration that gives 50% inhibition) is 30 µM. Molecule `CC(=O)OCOC(=O)C=Cc1ccccc1` [cinnamoyloxymethyl acetate] returned an IC50 of 12.5 µM. The result for `CC(=O)OCOC(=O)C=CC=Cc1ccccc1` [5-phenyl-2,4-pentadienoyloxymethyl acetate] reads 20 µM; that for `CC(=O)OCOC(=O)CCCC1CCCCC1` [4-cyclohexanebutyroyloxymethyl acetate], 23.2 µM. As to `CCCC(=O)O` [butyric acid, reference compound], the IC50 was above 2000 µM. Take `CC(=O)OCOC(=O)CSCc1ccccc1` [S-benzylthioglycoloyloxymethyl acetate]: the IC50 was 28.4 µM. `CC(/C=C/C(=O)NO)=C\[C@@H](C)C(=O)c1ccc(N(C)C)cc1` [trichostatin, reference compound] displayed an IC50 of 0.005 µM.

The record behind these values is US6699902B2, “Acetyloxymethyl esters and methods for using the same” (Beacon Laboratories, Inc., priority 2000, dated 2004).
